# Assay results published in patent US6235761A, “Compound, composition and method for treating cancer” (priority 1999, dated 2001).
# Assays:
# [1] = test system: mammals, especially humans; assay: Neurotoxicity of penclomedine versus 4-demethylpenclomedine; format: in vivo, human; details: for neurotoxicity versus metabolite levels: administration of penclomedine to patients
# Description: It has been observed that 4-demethylpenclomedine was present in clinical samples and continued to be present in the plasma for longer than 24 hours.
# [2] = Distribution of penclomedine and its metabolites in mouse tissues; format: in vivo, CD2F1 mice; details: for level in liver: mouse liver versus other tissues
# Description: CD2F1 Mice were obtained from Harlan Sprague-Dawley (Frederick, Md.). During the course of this study, mice were housed in polyethylene shoe box cages without bedding and given access to food and water. Four mice were used per time point.
# ^14 C-Penclomedine (specific activity 17.6 and 18.9 mCi/mM, labeled at CCl3) was obtained from Research Triangle Institute (Research Triangle Park, N.C.) and stored at -20° C. The site of radiolabel has been conserved in all penclomedine metabolites identified to date. The composition of the radioactive material was determined to be 99% ^14 C-penclomedine, by HPLC coupled with radiochemical detection.
# ^14 C-penclomedine (1 mCi/ml in ethanol) was added to the clinical penclomedine emulsion to give an activity of […] (4% ethanol final concentration). The mice were administered the above penclomedine formulation at 40 mg/kg (120 mg/m^2, […]) either intravenously via tail vein or orally via gavage. At 1, 2, 4, and 22 hours after intravenous administration and 2,4, 6, and 22 hours after oral administration, animals were euthanized with carbon dioxide and blood tissues were collected. Blood tissues from each time point were pooled. Blood was centrifuged and plasma and red cells were separated; tissues were homogenized in 3 volumes of 100 mM ammonium formate buffer pH 6.5. Urinary output was estimated by washing the cages with water after removing food and feces and concentrating these cage washings.
# A 1 ml aliquot of tissue homogenate or a […] was acidified with 200 ml of 0.7 M ammonium phosphate pH 2.7, then 3 ml of ethyl acetate was added. This mixture was vortexed, centrifuged and the organic layer was collected. Fifty microliters of DMSO were added, and the ethyl acetate was concentrated to approximately […] with a stream of dry nitrogen. Fifty microliters of acetonitrile were added to this residue, and the resulting solution was analyzed by HPLC. Human plasma was processed identically to mouse plasma with the exception that 500 ml of plasma was extracted. Concentrated cage washings were analyzed by HPLC without further processing.
# Plasma and tissue protein binding data were measured on the residue of the above extractions. The aqueous phase was washed with 5 ml of ethanol, centrifuged, and the ethanol insoluble precipitate was washed again with 5 ml ethanol. After centrifugation the pellet was resuspended in 0.5 ml 6 M guanidinium chloride, added to 10 ml 3a70B scintillation cocktail (Research Products International Corp., Mount Prospect, Ill.), and counted for ^14 C.
# HPLC Assays: The HPLC system consisted of a Hewlett-Packard Series II 1090 liquid chromatograph with diode array detector (Hewlett-Packard, Palo Alto, Calif.). The column used was an Alltech Adsorbosphere HS C18 5 m 250×4.6 mm column (Alltech Associates, Deerfield, Ill.). The system used a gradient elution consisting of 100% 10 mM ammonium phosphate buffer pH 2.7 progressing to 100% acetonitrile over 25 minutes at 1 ml/min. Detection was performed by means of ultraviolet absorbance at 240 nm as well as by means of radioactivity using a Radiomatic Flo-One/Beta A140 radioactive flow detector (Packard Instrument Co., Downers Grove, Ill.) equipped with a […] and Flo-Scint VI scintillation cocktail at a 2:1 ratio.
# ^14 C-Penclomedine derived radioactivity was determined in mouse urine samples collected at 1, 2, 4, and 22 hours following intravenous and oral administration of^14 C-penclomedine. […] There were considerable differences in metabolite distribution among the different tissues. […] Most compounds present in the 2 hour samples were detectable in the 22 hour samples at levels from 10% to 50% of those seen at 2 hours.
# [3] = test system: patients with advanced solid tumors; details: cited from earlier work
# dogs = details: cited from earlier work
# rats = details: dose related; during or immediately after infusion; cited from earlier work
# [4] = cited from earlier work
smiles,measurement,setting,value
"COc1nc(C(Cl)(Cl)Cl)c(Cl)c(O)c1Cl [4-Demethylpenclomedine, 3,5-dichloro-2-methoxy-4-hydroxy-6-(trichloromethyl)-pyridine]",neurotoxicity versus metabolite levels,[1],the levels of this metabolite increased as toxicity due to penclomedine resolved
same,accumulation in fatty tissues compared with penclomedine,[2]; mouse,does not accumulate in fatty tissues as much as penclomedine
same,level in liver,[2]; 14C-penclomedine dosed,liver contained the highest levels of demethylpenclomedine
"COc1nc(C(Cl)(Cl)Cl)c(Cl)c(OC)c1Cl [Penclomedine, 3,5-dichloro-2,4-dimethoxy-6-(trichloromethyl)pyridine]",toxicities reported in preclinical and early clinical studies,"[3]; human, in vivo",Neurological and hematological toxicities
same,principal dose limiting toxicity,"[3]; one hour infusion for 5 consecutive days, advanced solid tumors","Neurotoxicity, consisting of dysmetria, ataxia, and vertigo"
same,plasma penclomedine levels associated with severe emesis and seizures,dogs,above 30 μM
same,neurotoxicity in rats,rats,"muscle tremors, incoordination, convulsions and reduced activity"
same,neurotoxicity versus metabolite levels,[1],neurotoxicity did not increase while levels of this metabolite increased to several times the plasma levels of the parent drug
same,"neurotoxicity to mammals, especially humans",[1]; in vivo,"neurotoxic to mammals, especially to humans"
same,Tissue Concentration,"[2]; brain, 2 hours, i.v. 14C-penclomedine 40 mg/kg",1.30 nmoles/gram wet tissue
same,Tissue Concentration,"[2]; brain, 2 hours, p.o. 14C-penclomedine 40 mg/kg",2.16 nmoles/gram wet tissue
same,Tissue Concentration,"[2]; carcass, 2 hours, i.v. 14C-penclomedine 40 mg/kg",14.8 nmoles/gram wet tissue
same,Tissue Concentration,"[2]; carcass, 2 hours, p.o. 14C-penclomedine 40 mg/kg",55.2 nmoles/gram wet tissue
same,Tissue Concentration,"[2]; carcass, 22 hours, i.v. 14C-penclomedine 40 mg/kg",5.15 nmoles/gram wet tissue
same,Tissue Concentration,"[2]; carcass, 22 hours, p.o. 14C-penclomedine 40 mg/kg",2.16 nmoles/gram wet tissue
same,Tissue Concentration,"[2]; fat, 2 hours, i.v. 14C-penclomedine 40 mg/kg",15.8 nmoles/gram wet tissue
same,Tissue Concentration,"[2]; fat, 2 hours, p.o. 14C-penclomedine 40 mg/kg",18.55 nmoles/gram wet tissue
same,Tissue Concentration,"[2]; fat, 22 hours, i.v. 14C-penclomedine 40 mg/kg",8.90 nmoles/gram wet tissue
same,Tissue Concentration,"[2]; kidney, 2 hours, i.v. 14C-penclomedine 40 mg/kg",6.45 nmoles/gram wet tissue
same,Tissue Concentration,"[2]; kidney, 2 hours, p.o. 14C-penclomedine 40 mg/kg",7.30 nmoles/gram wet tissue
same,Tissue Concentration,"[2]; kidney, 22 hours, i.v. 14C-penclomedine 40 mg/kg",1.21 nmoles/gram wet tissue
same,Tissue Concentration,"[2]; kidney, 22 hours, p.o. 14C-penclomedine 40 mg/kg",0.85 nmoles/gram wet tissue
same,Tissue Concentration,"[2]; liver, 2 hours, i.v. 14C-penclomedine 40 mg/kg",0.69 nmoles/gram wet tissue
same,Tissue Concentration,"[2]; liver, 2 hours, p.o. 14C-penclomedine 40 mg/kg",1.35 nmoles/gram wet tissue
same,Tissue Concentration,"[2]; liver, 22 hours, p.o. 14C-penclomedine 40 mg/kg",0.38 nmoles/gram wet tissue
same,level in liver,[2]; 14C-penclomedine dosed,the lowest levels of penclomedine
same,tissues with highest levels,"[2]; mouse, 14C-penclomedine dosed",Highest levels of penclomedine were detected in the fat and carcass
same,detectability in 2 hour tissue samples,"[2]; mouse, 2 hours",All 2 hour tissue samples contained detectable amounts of penclomedine
same,detectability in the nervous system,"[4]; during the time period of neurologic symptoms, rats, O'Reilly et al.",penclomedine but not its metabolite is detectable in the nervous system
same,predominant radioactive species in the brain,[4]; tumor-bearing rats,the predominant radioactive species in the brain was ^14 C-penclomedine
